Earlier results, collected in patent US4745233A, “Derivatives of 1,1,2,2-tetramethyl-1,2-bis-(2-fluoro-4-hydroxyphenyl)-ethane” (Asta-Werke Aktiengesellschaft, priority 1985, dated 1988).

Tests used:
oestrogen receptor = biological target: T1, oestrogen receptor (Bos taurus, UniProt P49884); settings: known compound, literature
T1 sequence (P49884 1-596): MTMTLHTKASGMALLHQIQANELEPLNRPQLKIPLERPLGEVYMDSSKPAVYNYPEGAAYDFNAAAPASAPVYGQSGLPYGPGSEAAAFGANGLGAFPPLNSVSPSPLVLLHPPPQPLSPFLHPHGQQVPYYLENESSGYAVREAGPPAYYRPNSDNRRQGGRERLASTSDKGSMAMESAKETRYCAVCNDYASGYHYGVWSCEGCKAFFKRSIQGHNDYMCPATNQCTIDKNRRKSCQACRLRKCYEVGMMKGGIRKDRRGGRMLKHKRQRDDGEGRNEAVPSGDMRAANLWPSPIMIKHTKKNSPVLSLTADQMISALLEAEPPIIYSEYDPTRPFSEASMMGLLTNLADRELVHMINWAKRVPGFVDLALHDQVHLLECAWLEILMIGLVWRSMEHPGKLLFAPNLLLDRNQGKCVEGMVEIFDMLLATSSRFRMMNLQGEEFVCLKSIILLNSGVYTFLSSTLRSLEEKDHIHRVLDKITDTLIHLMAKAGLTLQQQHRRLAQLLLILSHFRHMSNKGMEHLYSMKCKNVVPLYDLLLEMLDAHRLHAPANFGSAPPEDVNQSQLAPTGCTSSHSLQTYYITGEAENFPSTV

[1] = tested on: DMBA-induced mammary carcinomas; settings: Sprague Dawley rats; known compound
[2] = tested on: oestrone- or oestradiol-stimulated uterus growth; settings: juvenile mice; known compound

CC(C)(c1ccc(O)cc1)C(C)(C)c1ccc(O)cc1 [1,1,2,2-tetramethyl-1,2-bis-(4-hydroxyphenyl)-ethane]
relative binding affinity (oestrogen receptor): 3.6
growth of DMBA-induced mammary carcinoma [1]: inhibits the growth
antioestrogen effect: inhibition of oestrone- or oestradiol-stimulated uterus growth [2]: strong effect as antioestrogen
